Tests used:
[1] = test system: C. elegans fem-1(hc17) sterile adults; assay: Adult survival assay of sterile fem-1(hc17) adults on compound-supplemented medium; assay type: in vivo, Caenorhabditis elegans
Experimental: For survival assays, young adult (day 0) animals were transferred onto fresh medium supplemented with the test compound at a range of concentrations. The compounds were tested at indicated concentrations in the growth medium (below). C. elegans nematodes are surrounded by a thick collagenous cuticle and are therefore relatively impermeable to environmental compounds. […] Survival was scored every 2–3 days as the ability to move in response to a gentle mechanical stimulus. During the first week of adulthood, C. elegans hermaphrodites are reproductively competent and normally produce 200–300 progeny. Since progeny production would complicate survival analysis, these experiments were performed using fem-1(hc17) animals that are sterile due to a spermatogenesis defect.
Resveratrol and picetannol were obtained from commercial sources (Sigma-Aldrich, Inc. and Calbiochem-Novobiochem Corp., respectively). The methoxylated stilbenes pinostilbene, desoxyrhapontigenin, 3-hydroxy-5,4'-dimethoxystilbene and pterostilbene (Figure 1) were synthesized by partial methylation of trans-resveratrol as previously reported. The methoxylated stilbenes were purified by preparative layer chromatography (Merck Silica gel 60 F254; EMD Chemicals Inc., Gibbstown, NJ) using the developing solvent chloroform:methanol (96:4) with 1% formic acid. […] These stilbenes were identified from their ^1H-NMR spectra (Bruker 400 MHz; Bruker, Billerica, MA). All stilbenes were dissolved in ethanol to 25 mg/mL before use. 5-Fluoro-deoxyuracil (Sigma Chemical Co.) was dissolved to 1 mg/mL in sterile water and stored frozen at -20°C until use. For treating C. elegans adults, each compound was added in a 200 μL volume to the top of a 1-day old bacterial lawn grown on NGM medium to final concentrations as indicated. Compounds were allowed 2 hours to diffuse through the agar medium before animals were added.
For survival analyses, synchronized populations of sterile fem-1(hc17) hermaphrodites were obtained by first transferring several fertile hermaphrodites to a fresh plate at 25°C and allowing them to lay eggs for several hours. The parent hermaphrodites were removed and embryos were allowed to develop into sterile adults at 25°C, which takes approximately 48 hours. On the first day of adulthood, referred to as day 0, sterile adults were transferred onto fresh media supplemented with stilbenes at indicated concentrations, and maintained at 25°C. Adult survival was scored every 2–3 days by the animal's ability to move in response to a gentle mechanical stimulus. Statistical analysis of survival was performed using the JMP software package.

[2] = test system: gld-1(q485) germline tumors; assay: Germline tumor growth assay (DAPI-stained tumor area); assay type: in vivo, Caenorhabditis elegans; conditions: for effect on tumor size (in words): 100 μM dose
Experimental: To assess the effects of methoxylation on antitumor activity in vivo, tumor area was measured in gld-1(q485) adults treated for four days with either resveratrol trimethylether, desoxyrhapontigenin or pterostilbene, which are methoxylated and toxic to adults, or resveratrol, which is hydroxylated and nontoxic. As controls, germline tumor area was also measured in animals treated with carrier only (ethanol) or with 5-fluoro-2'-deoxyuradine (FUDR), a thymidylate synthetase inhibitor that blocks cell proliferation. […] After four days of treatment, animals were collected and germline tumors were visualized by DAPI staining to visualize germcell nuclei. Because the level of DAPI staining was not quantitative between animals, we DAPI signal intensity was not used as a measure of tumor size. Rather, tumor size was directly measured as the area of the DAPI-stained gonad.
Resveratrol and picetannol were obtained from commercial sources (Sigma-Aldrich, Inc. and Calbiochem-Novobiochem Corp., respectively). The methoxylated stilbenes pinostilbene, desoxyrhapontigenin, 3-hydroxy-5,4'-dimethoxystilbene and pterostilbene (Figure 1) were synthesized by partial methylation of trans-resveratrol as previously reported. The methoxylated stilbenes were purified by preparative layer chromatography (Merck Silica gel 60 F254; EMD Chemicals Inc., Gibbstown, NJ) using the developing solvent chloroform:methanol (96:4) with 1% formic acid. The Rf values for pterostilbene, 3-hydroxy-5,4'-dimethoxystilbene, pinostilbene and desoxyrhapontigenin are 0.61, 0.57, 0.28, and 0.20, respectively. These stilbenes were identified from their ^1H-NMR spectra (Bruker 400 MHz; Bruker, Billerica, MA). All stilbenes were dissolved in ethanol to 25 mg/mL before use. 5-Fluoro-deoxyuracil (Sigma Chemical Co.) was dissolved to 1 mg/mL in sterile water and stored frozen at -20°C until use. For treating C. elegans adults, each compound was added in a 200 μL volume to the top of a 1-day old bacterial lawn grown on NGM medium to final concentrations as indicated. Compounds were allowed 2 hours to diffuse through the agar medium before animals were added.
The gld-1(q485) mutation causes a defect in oocyte development that results in growth of germline tumors that fill the somatic gonad, eventually leading to the animal's death. To examine the effects of the stilbenes on gld-1(q485) germline tumors, day 0 adults were placed on stilbene-containing medium in the presence of OP50 bacteria as food source. After 4 days at 20°C, animals were fixed in methanol and germcell nuclei were visualized by staining with DAPI. Images were collected with the entire animal in view using the 4× objective on a Nikon E800 microscope equipped with a Hamamatsu Orca ER CCD camera using OpenLab imaging software. NIH Image J software was used to measure germline tumor growth in treated and untreated animals. Tumor area was measured by outlining the entire DAPI-stained tumor.

cytochrome P450 2E1 = test system: cytochrome P450 2E1; parameters: method as in PMID 16684708; conditions: cited from earlier work
[3] = Trial 1, 100 μM in medium, from day 0 of adulthood, 25°C, control 12.16 days
[4] = Trial 1, 100 μM, treated vs control mean lifespan
[5] = Trial 4, 20 μM, control 11.26 days
[6] = Trial 4, 40 μM, control 11.26 days
[7] = Trial 4, 100 μM, control 11.26 days
[8] = Trial 6, 20 μM, control 15.32 days
[9] = Trial 6, 40 μM, control 15.32 days
[10] = Trial 6, 100 μM, control 15.32 days
[11] = Trial 2, 20 μM, control 11.05 days
[12] = Trial 2, 40 μM, control 11.05 days
[13] = Trial 3, 100 μM, control 15.37 days
[14] = Trial 3, 200 μM, control 15.37 days

| Compound | Mean lifespan, Treated [1, 3] [days] | Relative survival [1, 4] [%] | Relative survival ([1]; Trial 4, 20 μM) [%] | Mean lifespan, Treated [1, 5] [days] | Relative survival ([1]; Trial 4, 40 μM) [%] | Mean lifespan, Treated [1, 6] [days] | Relative survival ([1]; Trial 6, 20 μM) [%] | Mean lifespan, Treated [1, 8] [days] | Relative survival ([1]; Trial 6, 40 μM) [%] | Mean lifespan, Treated [1, 9] [days] | Relative survival ([1]; Trial 6, 100 μM) [%] | Mean lifespan, Treated [1, 10] [days] | Relative survival ([1]; Trial 2, 20 μM) [%] | Mean lifespan, Treated [1, 11] [days] | Relative survival ([1]; Trial 2, 40 μM) [%] | Mean lifespan, Treated [1, 12] [days] | Relative survival ([1]; Trial 3, 100 μM) [%] | Mean lifespan, Treated [1, 13] [days] | Relative survival ([1]; Trial 3, 200 μM) [%] | Mean lifespan, Treated [1, 14] [days] | also measured |
| --- | --- | --- | --- | --- | --- | --- | --- | --- | --- | --- | --- | --- | --- | --- | --- | --- | --- | --- | --- | --- | --- |
| COc1cc(/C=C/c2ccc(O)cc2)cc(OC)c1 [Pterostilbene, pterostilbene] | 9.55 | 79 | 93 | 10.43 | 89 | 10 | 90 | 13.72 | 94 | 14.41 | 72 | 10.98 |  |  |  |  |  |  |  |  | Relative survival ([1]; Trial 4, 100 μM): 72%; Mean lifespan, Treated [1, 7]: 8.07 days; effect on tumor size (in words) ([2]; four days treatment): modestly reduced tumor size |
| COc1ccc(C=Cc2cc(O)cc(OC)c2)cc1 [3-OH-5,4'-dimethoxystilbene, 3-hydroxy-5,4'-dimethoxystilbene] | 6.34 | 52 |  |  |  |  | 68 | 10.38 | 50 | 7.68 | 43 | 6.56 | 100 | 11.05 | 95 | 10.52 |  |  |  |  |  |
| Oc1cc(O)cc(/C=C/c2ccc(O)c(O)c2)c1 [Piceatannol, piceatannol, reference compound] |  |  |  |  |  |  | 89 | 13.71 | 102 | 15.63 | 108 | 16.6 | 106 | 11.72 | 105 | 11.58 | 116 | 17.78 | 114 | 17.5 |  |
| COc1cc(O)cc(/C=C/c2ccc(O)cc2)c1 [Pinostilbene, pinostilbene] | 13.6 | 112 |  |  |  |  | 93 | 14.24 | 113 | 17.33 | 106 | 16.24 | 91 | 10.04 | 104 | 11.53 | 110 | 16.9 | 99 | 15.23 | inhibition of catalytic activity of cytochrome P450 2E1 (in words) (cytochrome P450 2E1): moderately inhibited |
| COc1ccc(/C=C/c2cc(O)cc(O)c2)cc1 [Desoxyrhapontigenin, desoxyrhapontigenin] | 10.64 | 88 | 91 | 10.2 | 92 | 10.38 | 93 | 14.18 | 100 | 15.31 | 89 | 13.63 |  |  |  |  | 74 | 11.31 | 76 | 11.61 | Relative survival ([1]; Trial 4, 100 μM): 84%; Mean lifespan, Treated [1, 7]: 9.44 days; effect on tumor size (in words) ([2]; four days treatment): consistent reductions in tumor size; inhibition of catalytic activity of cytochrome P450 2E1 (in words) (cytochrome P450 2E1): not inhibitory |
| Oc1ccc(/C=C/c2cc(O)cc(O)c2)cc1 [Resveratrol, resveratrol, reference compound] | 12.18 | 100 |  |  |  |  | 96 | 14.65 | 106 | 16.17 | 115 | 17.55 | 107 | 11.85 | 95 | 10.53 | 108 | 16.64 | 111 | 17 | effect on germline tumor size vs untreated ([2]; 100 μM in growth medium, four days treatment, FUDR values are single trials): -4%; effect on tumor area (in words) ([2]; 200 and 400 μM dose, three trials): not associated with statistically significant reductions in tumor area |

From PMC2532997, “Methoxylation enhances stilbene bioactivity in Caenorhabditis elegans” (BMC Pharmacology, 2008)
